In patent US20080063628A1, “METHODS TO PROMOTE CELL DIFFERENTIATION” (priority 2006, published 2008):

What was measured:
Experiment in all cases: Single trichostatin A dose, 144 h follow-up, gene expression by RT-PCR (Example 6)
Format in all cases: cell-based, human
[1] = test system: early passage (P5) pancreatic-derived stromal cell line; settings: 1.25 μM once at 0 h
Protocol: (§1) Several cell lines obtained from different amniotic fluid specimens (see Example 14) and pancreas donors (see Example 13) were tested with similar results. Two lines at similar passage number but derived from different amniotic fluid specimens are shown in Table VI-A and Table VI-B for this example. One of these cell lines was also used in examples 2 and 4 above. In addition, this example also contains comparison data in Table VI-C and Table VI-D for a single pancreatic-derived stromal line grown to early and late passage number.
(§2) Amniotic fluid derived cells or pancreatic-derived stromal cells were seeded into 24-well tissue culture plates at a density of 5000/cm^2 and cultured in AMNIOMAX (Invitrogen) or DMEM with 10% FBS, respectively, under standard cell culture conditions until confluent. After the cells reached confluency, amniotic fluid derived cells were treated once at time 0 hours with 500 nM trichostatin A. Pancreas-derived stromal cells were treated once at time 0 hours with 1.25 μM trichostatin A. Samples for RT-PCR were taken daily from zero to six days at the times indicated in Table VI.
(§3) RNA samples were obtained from the treated cultures up to 144 hours after the initial addition of trichostatin A or DMSO. Culture media was removed, the cells were washed with PBS, and RLT lysis buffer containing β-mercaptoethanol (Qiagen) was added. During culture, the medium was not changed nor was freshly prepared trichostatin A added. RNA was purified using the RNeasy Mini Kit (Qiagen), and RNA quantity and quality was determined using a spectrophotometer. cDNA was made using the iScript cDNA synthesis kit (BioRad).
(§4) Samples of 20 ng cDNA were used in each reaction to determine the expression levels of the following genes in amniotic fluid-derived cells: Gata1, HNF-3 beta, Pdx-1, insulin, and Sox17. Similarly, samples of 20 ng cDNA were used in each reaction to determine the expression level of the following genes in pancreatic-derived stromal cells: glucagon, HNF-3 beta, insulin and Pdx-1. Real-Time PCR was performed on the Applied Biosystems 7500, and data was analyzed using the accompanying software according to the methods described in Example 15.
(§5) Real-time PCR amplifcation and quantitative analysis. Unless otherwise stated, all reagents were purchased from Applied Biosystems. Real-time PCR reactions were performed using the ABI PRISM™ 7500 Sequence Detection System. TAQMAN™ FAST UNIVERSAL PCR MASTER MIX™ (ABI, CA) was used with 20 ng of reverse transcribed RNA in a total reaction volume of 20 μl. Each cDNA sample was run in duplicate to allow correction of pipetting errors. Primers and FAM-labeled TAQMAN™ probes were used at concentrations of 200 nM. The level of expression for each target gene was normalized using the pre-developed Applied Biosystem's human glyceraldehyde-3-phosphate dehydrogenase (GAPDH) endogenous control kit. Primers and probes were designed using either ABI PRISM PRIMER EXPRESS™ software or a pre-developed ABI gene analysis kit. For each gene, either one of the primers or the probe were designed to be exon-boundary spanning. This eliminated the possibility of the primers/probe binding to any genomic DNA present. The primer and probe sets are listed as follows: Pdx-1 (Hs00426216), Insulin (Hs00355773), glucagon (Hs00174967), and FoxA2 (HNF 3-beta) (Hs00232764). The remaining primers were designed using the PRIMERS program (ABI, CA). After an initial 95° C. incubation for 20 sec, samples were cycled 40 times in two stages: a denaturation step at 95° C. for 3 sec, followed by an annealing/extension step at 60° C. for 30 sec.
(§6) For each primer/probe set, a cycle time value was determined as the cycle number at which the fluorescence intensity of the PCR reaction reached a specific value in the middle of the exponential region of amplification. An increase in expression of a gene corresponded to a decrease in the number of cycles required for the fluorescence intensity to reach this value.

[2] = test system: amniotic fluid-derived cell line; settings: 500 nM once at 0 h
Protocol: as §1, §2, §3, §4, §5, §6

[3] = test system: second amniotic fluid-derived cell line; settings: 500 nM once at 0 h
Protocol: as §1, §2, §3, §4, §5, §6

CC(/C=C/C(=O)NO)=C\[C@@H](C)C(=O)c1ccc(N(C)C)cc1 [trichostatin A]
HNF (HNF-3 beta) gene expression ([1]; 24 hrs): +++ (detectable at less than 35 cycles by RT-PCR with SE less than 0.9) | Insulin gene expression ([1]; 24 hrs): nd (not detectable at >40 cycles by RT-PCR) | Pdx-1 gene expression ([1]; 24 hrs): +++ (detectable at less than 35 cycles by RT-PCR with SE less than 0.9) | glucagon gene expression ([1]; 24 hrs): +++ (detectable at less than 35 cycles by RT-PCR with SE less than 0.9) | HNF (HNF-3 beta) gene expression ([1]; 48 hrs): nd (not detectable at >40 cycles by RT-PCR) | Insulin gene expression ([1]; 48 hrs): nd (not detectable at >40 cycles by RT-PCR) | Pdx-1 gene expression ([1]; 48 hrs): nd (not detectable at >40 cycles by RT-PCR) | glucagon gene expression ([1]; 48 hrs): + (detectable between 35 and 40 cycles by RT-PCR) | HNF (HNF-3 beta) gene expression ([1]; 72 hrs): nd (not detectable at >40 cycles by RT-PCR) | Insulin gene expression ([1]; 72 hrs): nd (not detectable at >40 cycles by RT-PCR) | Pdx-1 gene expression ([1]; 72 hrs): nd (not detectable at >40 cycles by RT-PCR) | glucagon gene expression ([1]; 72 hrs): + (detectable between 35 and 40 cycles by RT-PCR) | HNF (HNF-3 beta) gene expression ([1]; 96 hrs): nd (not detectable at >40 cycles by RT-PCR) | Insulin gene expression ([1]; 96 hrs): nd (not detectable at >40 cycles by RT-PCR) | Pdx-1 gene expression ([1]; 96 hrs): nd (not detectable at >40 cycles by RT-PCR) | glucagon gene expression ([1]; 96 hrs): +++ (detectable at less than 35 cycles by RT-PCR with SE less than 0.9) | HNF (HNF-3 beta) gene expression ([1]; 120 hrs): nd (not detectable at >40 cycles by RT-PCR) | Insulin gene expression ([1]; 120 hrs): nd (not detectable at >40 cycles by RT-PCR) | Pdx-1 gene expression ([1]; 120 hrs): nd (not detectable at >40 cycles by RT-PCR) | glucagon gene expression ([1]; 120 hrs): nd (not detectable at >40 cycles by RT-PCR) | HNF (HNF-3 beta) gene expression ([1]; 144 hrs): nd (not detectable at >40 cycles by RT-PCR) | Insulin gene expression ([1]; 144 hrs): nd (not detectable at >40 cycles by RT-PCR) | Pdx-1 gene expression ([1]; 144 hrs): nd (not detectable at >40 cycles by RT-PCR) | glucagon gene expression ([1]; 144 hrs): nd (not detectable at >40 cycles by RT-PCR) | Gata1 gene expression ([2]; 24 hrs): nd (not detectable at >40 cycles by RT-PCR) | HNF (HNF-3 beta) gene expression ([2]; 24 hrs): +++ (detectable at less than 35 cycles by RT-PCR with SE less than 0.9) | Insulin gene expression ([2]; 24 hrs): nd (not detectable at >40 cycles by RT-PCR) | Pdx-1 gene expression ([2]; 24 hrs): + (detectable between 35 cycles and 40 cycles by RT-PCR) | sox17 gene expression ([2]; 24 hrs): +++ (detectable at less than 35 cycles by RT-PCR with SE less than 0.9) | Gata1 gene expression ([2]; 48 hrs): nd (not detectable at >40 cycles by RT-PCR) | HNF (HNF-3 beta) gene expression ([2]; 48 hrs): +++ (detectable at less than 35 cycles by RT-PCR with SE less than 0.9) | Insulin gene expression ([2]; 48 hrs): nd (not detectable at >40 cycles by RT-PCR) | Pdx-1 gene expression ([2]; 48 hrs): nd (not detectable at >40 cycles by RT-PCR) | sox17 gene expression ([2]; 48 hrs): +++ (detectable at less than 35 cycles by RT-PCR with SE less than 0.9) | Gata1 gene expression ([2]; 72 hrs): nd (not detectable at >40 cycles by RT-PCR) | HNF (HNF-3 beta) gene expression ([2]; 72 hrs): + (detectable between 35 cycles and 40 cycles by RT-PCR) | Insulin gene expression ([2]; 72 hrs): + (detectable between 35 cycles and 40 cycles by RT-PCR) | Pdx-1 gene expression ([2]; 72 hrs): nd (not detectable at >40 cycles by RT-PCR) | sox17 gene expression ([2]; 72 hrs): +++ (detectable at less than 35 cycles by RT-PCR with SE less than 0.9) | Gata1 gene expression ([2]; 96 hrs): nd (not detectable at >40 cycles by RT-PCR) | HNF (HNF-3 beta) gene expression ([2]; 96 hrs): nd (not detectable at >40 cycles by RT-PCR) | Insulin gene expression ([2]; 96 hrs): + (detectable between 35 cycles and 40 cycles by RT-PCR) | Pdx-1 gene expression ([2]; 96 hrs): nd (not detectable at >40 cycles by RT-PCR) | sox17 gene expression ([2]; 96 hrs): +++ (detectable at less than 35 cycles by RT-PCR with SE less than 0.9) | Gata1 gene expression ([2]; 120 hrs): nd (not detectable at >40 cycles by RT-PCR) | HNF (HNF-3 beta) gene expression ([2]; 120 hrs): + (detectable between 35 cycles and 40 cycles by RT-PCR) | Insulin gene expression ([2]; 120 hrs): + (detectable between 35 cycles and 40 cycles by RT-PCR) | Pdx-1 gene expression ([2]; 120 hrs): nd (not detectable at >40 cycles by RT-PCR) | sox17 gene expression ([2]; 120 hrs): +++ (detectable at less than 35 cycles by RT-PCR with SE less than 0.9) | Gata1 gene expression ([2]; 144 hrs): nd (not detectable at >40 cycles by RT-PCR) | HNF (HNF-3 beta) gene expression ([2]; 144 hrs): nd (not detectable at >40 cycles by RT-PCR) | Insulin gene expression ([2]; 144 hrs): + (detectable between 35 cycles and 40 cycles by RT-PCR) | Pdx-1 gene expression ([2]; 144 hrs): nd (not detectable at >40 cycles by RT-PCR) | sox17 gene expression ([2]; 144 hrs): +++ (detectable at less than 35 cycles by RT-PCR with SE less than 0.9) | Gata1 gene expression ([3]; 24 hrs): nd (not detectable at >40 cycles by RT-PCR) | HNF (HNF-3 beta) gene expression ([3]; 24 hrs): +++ (detectable at less than 35 cycles by RT-PCR with SE less than 0.9) | Insulin gene expression ([3]; 24 hrs): nd (not detectable at >40 cycles by RT-PCR) | Pdx-1 gene expression ([3]; 24 hrs): + (detectable between 35 and 40 cycles by RT-PCR) | sox17 gene expression ([3]; 24 hrs): +++ (detectable at less than 35 cycles by RT-PCR with SE less than 0.9) | Gata1 gene expression ([3]; 48 hrs): nd (not detectable at >40 cycles by RT-PCR) | HNF (HNF-3 beta) gene expression ([3]; 48 hrs): +++ (detectable at less than 35 cycles by RT-PCR with SE less than 0.9) | Insulin gene expression ([3]; 48 hrs): nd (not detectable at >40 cycles by RT-PCR) | Pdx-1 gene expression ([3]; 48 hrs): nd (not detectable at >40 cycles by RT-PCR) | sox17 gene expression ([3]; 48 hrs): +++ (detectable at less than 35 cycles by RT-PCR with SE less than 0.9) | Gata1 gene expression ([3]; 72 hrs): nd (not detectable at >40 cycles by RT-PCR) | HNF (HNF-3 beta) gene expression ([3]; 72 hrs): + (detectable between 35 and 40 cycles by RT-PCR) | Insulin gene expression ([3]; 72 hrs): + (detectable between 35 and 40 cycles by RT-PCR) | Pdx-1 gene expression ([3]; 72 hrs): nd (not detectable at >40 cycles by RT-PCR) | sox17 gene expression ([3]; 72 hrs): +++ (detectable at less than 35 cycles by RT-PCR with SE less than 0.9) | Gata1 gene expression ([3]; 96 hrs): nd (not detectable at >40 cycles by RT-PCR) | HNF (HNF-3 beta) gene expression ([3]; 96 hrs): + (detectable between 35 and 40 cycles by RT-PCR) | Insulin gene expression ([3]; 96 hrs): ++ (detectable at less than 35 cycles by RT-PCR with SE greater than 0.9) | Pdx-1 gene expression ([3]; 96 hrs): nd (not detectable at >40 cycles by RT-PCR) | sox17 gene expression ([3]; 96 hrs): +++ (detectable at less than 35 cycles by RT-PCR with SE less than 0.9) | Gata1 gene expression ([3]; 120 hrs): nd (not detectable at >40 cycles by RT-PCR) | HNF (HNF-3 beta) gene expression ([3]; 120 hrs): + (detectable between 35 and 40 cycles by RT-PCR) | Insulin gene expression ([3]; 120 hrs): ++ (detectable at less than 35 cycles by RT-PCR with SE greater than 0.9) | Pdx-1 gene expression ([3]; 120 hrs): nd (not detectable at >40 cycles by RT-PCR) | sox17 gene expression ([3]; 120 hrs): +++ (detectable at less than 35 cycles by RT-PCR with SE less than 0.9) | Gata1 gene expression ([3]; 144 hrs): nd (not detectable at >40 cycles by RT-PCR) | HNF (HNF-3 beta) gene expression ([3]; 144 hrs): + (detectable between 35 and 40 cycles by RT-PCR) | Insulin gene expression ([3]; 144 hrs): ++ (detectable at less than 35 cycles by RT-PCR with SE greater than 0.9) | Pdx-1 gene expression ([3]; 144 hrs): nd (not detectable at >40 cycles by RT-PCR) | sox17 gene expression ([3]; 144 hrs): +++ (detectable at less than 35 cycles by RT-PCR with SE less than 0.9)
